Each structure is given as a SMILES string. pKi: −log10 of the molar value. Some results are limits rather than exact numbers.

From ChEMBL document CHEMBL6127146, “Exploring the Polypharmacological Potential of PCI-27483: A Selective Inhibitor of Carbonic Anhydrases IX and XII” (ACS Med Chem Lett, 2024) come the findings set out here.

The target in the assay is Carbonic anhydrase 3 (Homo sapiens, UniProt P07451).
Chain of Carbonic anhydrase 3 (P07451 whole entry): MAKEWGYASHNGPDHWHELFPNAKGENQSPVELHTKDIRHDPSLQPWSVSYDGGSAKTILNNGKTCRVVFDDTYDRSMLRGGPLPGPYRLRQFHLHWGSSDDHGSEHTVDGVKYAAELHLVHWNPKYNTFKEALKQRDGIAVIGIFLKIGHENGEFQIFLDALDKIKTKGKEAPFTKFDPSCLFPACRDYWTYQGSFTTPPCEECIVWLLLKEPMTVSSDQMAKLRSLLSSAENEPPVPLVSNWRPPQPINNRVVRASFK

Description: Inhibition of human CA3 preincubated for 15 mins by phenol red dye based stopped flow CO2 hydration assay

`N=C(N)c1ccc2nc(-c3cc(CC(=O)N[C@@H](CC(=O)O)C(=O)O)cc(-c4cc(S(N)(=O)=O)ccc4O)c3O)[nH]c2c1` [PCI-27483]: the pKi is less than 4.00.
